Reference: patent publication EP0852233A1, “CYCLOSPORIN PHOSPHATE DERIVATIVES AND MEDICINAL COMPOSITION” (NIPPON SHINYAKU COMPANY, LIMITED, priority 1995, dated 1997)
≈ marks a conversion by molar mass, not a printed value.

Key:
[1] = Absorption after oral administration and release of the phosphate group (blood concentration by HPLC); type: in vivo; conditions: SD rats, oral 30 mg/kg; for level at 0.5 h / level at 1 h / level at 2 h / level at 4 h / level at 8 h / level at 24 h: rat, blood, read-out: Blood concentration of the administered compound (unchanged)
Description: Each blood sample was centrifuged (10,000 rpm x 5 min.) and the supernatant was applied onto a pretreatment column (Sep-Pack C18 Vac, Waters). After the column was rinsed with distilled water and 40% methanol, elution was carried out in 10% steps from 50% methanol to 100% methanol and 50 µl of the eluate was injected into an HPLC. From the concentration value thus found, the blood concentration was calculated.

[2] = system: IL-2 production of T cells (Jurkat cells); assay: IL-2 production inhibitory activity (Jurkat cells stimulated with concanavalin A; IL-2 determined by CTLL-2 bioassay/MTT); type: cell-based, human; conditions: 24 hours
Description: It is known that the immunosuppressant action of cyclosporins is based on inhibition of the IL-2 gene of T cells. Therefore, the biological activity of cyclosporins can be assayed using inhibition of the IL-2 production of T cells as an indicator. Accordingly, using Jurkat cells (a tumor cell line derived from human T cells), the biological activity of the compound of the invention was evaluated.
Jurkat cells grown to the logarithmic phase in RPMI-1640 medium (Flow Laboratories; 10% heat-inactivated FBS, 300 mg/l L-glutamine, 50 U/ml streptomycin, 50 U/ml penicillin, 25 mM Hepes, 50 µM 2-mercaptoethanol) were seeded onto a 96-well microtiter plate at a density of 8x10^5 cells/ml, 0.1 ml/well. Then, as an IL-2 production inducer, 10 µl of concanavalin A was added, followed by addition of 20 µl each of samples varying in concentration. After the final volume was adjusted to 0.2 ml/well with the medium, the plate was incubated in a CO2 incubator at 37°C for 24 hours. After completion of culture, the reaction mixture in each well was centrifuged (1000 rpm x 5 min.) and the supernatant was recovered.
Determination of IL-2 was carried out by the bioassay using CTLL-2 cells which are known as IL-2-dependent cells.
To 0.1 ml of CTLL-2 cells (40,000/ml) in logarithmic phase, 0.1 ml of an appropriate dilution of the above supernatant was added, and the cells were cultured in a CO2 incubator at 37°C for 48 hours. After completion of culture, the cell growth was determined by the MTT assay. The relation between growth of CTLL-2 cells and IL-2 concentration was previously plotted for a recombinant IL-2 and using the plots as a standard curve, the IL-2 concentration was estimated from the degree of growth of CTLL-2 cells.
The IL-2 production inhibition rate was calculated by means of the following equation (1) and the IC50 value of each sample was calculated from the inhibition rates at various concentrations. IL-2 production inhibition rate (%) = (1-(IL-2 production by cells in presence of sample)/(IL-2 production by cells in absence of sample)) x100 [formula]

[3] = rat, in vivo
Description: Nephrotoxicity was investigated by the lithium clearance method.
Each sample was adjusted to a concentration of 5 mg/ml and 2 ml/kg was administered intraperitonally for 7 consecutive days. The control group similarly received the solvent used for preparation of the sample solutions. […] On the following day the blood was drawn from the jugular vein and the animals were placed in metabolism cages. Under feeding with the lithium diet, the 24-hour urine was collected and the urine volume was measured using a measuring cylinder. After the rats were taken out from the metabolism cages, blood sampling was immediately carried out and the mean lithium value of two measurements before and after urine collection was taken as the blood lithium value of the corresponding rat. The body weight of rats was determined immediately after they were taken out from metabolism cages. To determine the blood lithium concentration, each blood sample was centrifuged at 3000 rpm for 10 minutes and the plasma was taken for determination. […] 24-hr CLi /100 g = urine volume x 100/rat body weight · urinary Li value/blood Li value [formula]

physchem = conditions: water
Description: From each test tube, 250 µl was taken into a centrifuge tube and centrifuged (10,000 rpm x 10 min.). The supernatant was recovered, diluted with distilled water, and subjected to HPLC for assay.
Column: Inertsil C8 (4.6x250 mm) Mobile phase: acetonitrile-methanol-distilled water-phosphoric acid (50:35:15:0.005) Column temperature: 75°C Detection: UV 210 nm

| Structure (SMILES) | Sum of blood concentrations up to 24 hr, administered compound (unchanged) [1] [ng/mL] | level at 0.5 h ([1]; 0.5 hr after administration) [ng/mL] | level at 1 h ([1]; 1 hr after administration) [ng/mL] | level at 2 h ([1]; 2 hr after administration) [ng/mL] | level at 4 h ([1]; 4 hr after administration) [ng/mL] | level at 8 h ([1]; 8 hr after administration) [ng/mL] | level at 24 h ([1]; 24 hr after administration) [ng/mL] | IL-2 production inhibitory concentration (IC50 ng/ml) [2] [ng/mL] | solubility thermodynamic at 30 min (physchem) [µg/mL] | also measured |
| --- | --- | --- | --- | --- | --- | --- | --- | --- | --- | --- |
| C/C=C/C[C@@H](C)[C@@H](O)[C@H]1C(=O)N[C@@H](CC)C(=O)N(C)CC(=O)N(C)[C@@H](CC(C)C)C(=O)N[C@@H](C(C)C)C(=O)N(C)[C@@H](CC(C)C)C(=O)N[C@@H](C)C(=O)N[C@H](COP(=O)(O)O)C(=O)N(C)[C@@H](CC(C)C)C(=O)N(C)[C@@H](CC(C)C)C(=O)N(C)[C@@H](C(C)C)C(=O)N1C [[Phosphono-D-serine^8]cyclosporin A, [phosphono-D-serine^8]cyclosporin A] | 3053 | 391 | 813 | 971 | 536 | 311 | 31 |  |  | Sum of blood concentrations up to 24 hr, Sum of (2) and (3) [1]: 13501 ng/mL; Sum of blood concentrations up to 24 hr, [D-serine^8]cyclosporin A which released phosphoric acid [1]: 10448 ng/mL; Blood concentration of [D-serine^8]cyclosporin A which released phosphoric acid ([1]; 0.5 hr after administration): 1413 ng/mL; Blood concentration, Sum of (2) and (3) (released plus unchanged compound) ([1]; 0.5 hr after administration): 1804 ng/mL; Blood concentration of [D-serine^8]cyclosporin A which released phosphoric acid ([1]; 1 hr after administration): 3115 ng/mL; Blood concentration, Sum of (2) and (3) (released plus unchanged compound) ([1]; 1 hr after administration): 3928 ng/mL; Blood concentration of [D-serine^8]cyclosporin A which released phosphoric acid ([1]; 2 hr after administration): 2516 ng/mL; Blood concentration, Sum of (2) and (3) (released plus unchanged compound) ([1]; 2 hr after administration): 3437 ng/mL; Blood concentration of [D-serine^8]cyclosporin A which released phosphoric acid ([1]; 4 hr after administration): 2391 ng/mL; Blood concentration, Sum of (2) and (3) (released plus unchanged compound) ([1]; 4 hr after administration): 2927 ng/mL; Blood concentration of [D-serine^8]cyclosporin A which released phosphoric acid ([1]; 8 hr after administration): 910 ng/mL; Blood concentration, Sum of (2) and (3) (released plus unchanged compound) ([1]; 8 hr after administration): 1221 ng/mL; Blood concentration of [D-serine^8]cyclosporin A which released phosphoric acid ([1]; 24 hr after administration): 103 ng/mL; Blood concentration, Sum of (2) and (3) (released plus unchanged compound) ([1]; 24 hr after administration): 134 ng/mL |
| C/C=C/C[C@@H](C)[C@@H](O)[C@H]1C(=O)N[C@@H]([C@@H](C)O)C(=O)N(C)CC(=O)N(C)[C@@H](CC(C)C)C(=O)N[C@@H](C(C)C)C(=O)N(C)[C@@H](CC(C)C)C(=O)N[C@@H](C)C(=O)N[C@H](C)C(=O)N(C)[C@@H](CC(C)C)C(=O)N(C)[C@@H](CC(C)C)C(=O)N(C)[C@@H](C(C)C)C(=O)N1C [Cyclosporin C] |  |  |  |  |  |  |  | 12 | 29.7 (≈ 24.4 µM) | nephrotoxicity [3]: nephrotoxic |
| C/C=C/C[C@@H](C)[C@@H](O)[C@H]1C(=O)N[C@@H](CC)C(=O)N(C)CC(=O)N(C)[C@@H](CC(C)C)C(=O)N[C@@H](C(C)C)C(=O)N(C)[C@@H](CC(C)C)C(=O)N[C@@H](C)C(=O)N[C@H](CO)C(=O)N(C)[C@@H](CC(C)C)C(=O)N(C)[C@@H](CC(C)C)C(=O)N(C)[C@@H](C(C)C)C(=O)N1C [[D-serine^8]cyclosporin A, reference compound] | 8754 | 895 | 4320 | 1920 | 1020 | 533 | 69 | 6 | 35.1 (≈ 28.8 µM) |  |
| C/C=C/C[C@@H](C)[C@@H](O)[C@H]1C(=O)N[C@@H]([C@@H](C)OP(=O)(O)O)C(=O)N(C)CC(=O)N(C)[C@@H](CC(C)C)C(=O)N[C@@H](C(C)C)C(=O)N(C)[C@@H](CC(C)C)C(=O)N[C@@H](C)C(=O)N[C@H](C)C(=O)N(C)[C@@H](CC(C)C)C(=O)N(C)[C@@H](CC(C)C)C(=O)N(C)[C@@H](C(C)C)C(=O)N1C [[Phosphonothreonine^2]cyclosporin A, [phosphonothreonine^2]cyclosporin A] |  |  |  |  |  |  |  | 49 |  |  |
